Test results: patent publication US11008603B2, “Method and kit for detecting pathogenic microorganism” (JAPAN SCIENCE AND TECHNOLOGY AGENCY, priority 2016, dated 2021)

How the values were obtained:
[1] = cited from earlier work
[2] = Test Example 2: influence of buffering substance (DEA) concentration on fluorescence intensity of 4-MU in droplets covered with FC40 over time; type: physicochemical; details: 4 mM CaCl2, pH 6.5, 50 μM 4-MU
Experimental: According to the following procedure, the influence of the concentration of a buffering substance of a hydrophilic solvent on detection sensitivity was studied. 4-MU was dissolved in a concentration of 50 μM in a buffer solution (4 mM CaCl2, pH 6.5) having a DEA concentration adjusted to 25 mM to 1M. Into the array, 30 μL of the buffer solution in which 4-MU was dissolved was introduced, to fill each of the wells with the buffer solution (see FIG. 1A). Then, into the array, 200 μL of a hydrophobic solvent (FC40) was introduced, to form a droplet of the hydrophilic solvent covered with the hydrophobic solvent in each of the wells. Time-lapse photographing was performed under a fluorescence microscope to measure fluorescence intensity of each of the droplets.

[3] = Test Example 1: influence of pH value of hydrophilic solvent on fluorescence detection of 4-MU in droplets covered with FC40; type: physicochemical; details: 50 μM 4-MU, 33 mM DEA-HCl, 4 mM CaCl2; buffer pH set higher than pKa (pH 8 or more) within pH 6.5 to 9.0; FC40 cover
Excerpt: According to the following procedure, the influence of the pH value of a hydrophilic solvent on detection sensitivity was studied.
First, according to a report by Kim et al. (“Quantifying genetically inserted fluorescent protein in single iPS cells to monitor Nanog expression using electroactive microchamber arrays”, Lab on Chip, 2014, Issue 4, Vol. 14, and p. 730-736), a droplet array device (DAD) was produced. A cover glass (24 mm×32 mm) was washed and dried. The cover glass was then spin-coated with an amorphous fluorine resin (CYTOP 816AP, AGC Inc.), and fired at 180° C. for 1 hour. The cover glass coated with the amorphous fluorine resin was spin-coated with a positive type photoresist (AZ-4903, AZ Electronic Materials), fired at 55° C. for 3 minutes, and then further fired at 110° C. for 5 minutes. The cover glass was subjected to photolithography by use of a photomask having holes each having a diameter of 3 μm at intervals of 5 μm. The cover glass was dry-etched with oxygen plasma, and then washed to obtain as the DAD. […]
With a CMOS camera (Neo sCMOS, Andor) connected to a fluorescence microscope (IX8, OLYMPUS), a fluorescent image of each of the droplets was photographed to measure fluorescence intensity. […] The fluorescent image was analyzed with an imaging analysis software (Meta-Morph, Molecular Devices), to calculate fluorescence intensity.

| fluorescence intensity over time ([2]; DEA 50 mM, for 10 minutes) | decrease in the fluorescence intensity over time ([2]; DEA 100 mM, for 30 minutes) | decrease in the fluorescence intensity over time ([2]; DEA 500 mM, for 30 minutes) | decrease in the fluorescence intensity over time ([2]; DEA 1 M, after subtraction of fading due to exposure) | fluorescence detection sensitivity in droplet (distribution/leakage to FC40) [3] | Compound | acid dissociation constant (pKa) [1] | fluorescence intensity over time ([2]; DEA 25 mM) |
| --- | --- | --- | --- | --- | --- | --- | --- |
| – | – | – | – | – | fluorescein | 6.4 | – |
| – | – | – | – | – | CCN(CC)c1ccc2c(-c3ccccc3C(=O)O)c3ccc(=[N+](CC)CC)cc-3oc2c1.[Cl-] [rhodamine] | 6.0 | – |
| maintained | significantly suppressed | significantly suppressed | not observed | detected with higher sensitivity | Cc1cc(=O)oc2cc(O)ccc12 [4MU, 4-methylumbelliferone] | 7.79 | decrease in the fluorescence intensity was observed |
| – | – | – | – | – | O=c1ccc2nc3ccc(O)cc3oc-2c1 [resorufin] | 6.0 | – |
